Assay in all cases: inhibition of tumour cell growth, NCI panel, 48 h
Experiment [1] deals with CAKI-1 renal.
The test system of experiment [2] is CCRF-CEM leukemia.
In experiment [3] the test system is COLO 205 colon.
Experiment [4] has as its system K-562 leukemia.
The subject of experiment [5] is MDA-MB-231 breast.
The subject of experiment [6] is NCI/ADR-RES ovarian.
Experiment [7] relates to OVCAR-4 ovarian.
Experiment [8] concerns SF-295 CNS.
For experiment [9], the system named is SW-620 colon.
For experiment [10], the system named is U251 CNS.

Molecules are shown by their SMILES. “And” between values parts separate entries of the source, which are not always exact repeats. Identical values can stand only once.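 Growth conditions: 96-well plates. Treatment: test compound, 48 hours, 5 concentrations. Analysis: linear interpolation between bracketing concentrations; unreached endpoints set to highest concentration. GI50 = concentration required for 50% inhibition of growth. Definition used: TGI = concentration required for complete inhibition of growth.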 Bounds are passed on as bounds.

Among the data in PubChem BioAssay (NCI) are GI50 and TGI values, retold here.

In the case of `CN(C)CCN=c1nc2c(c(N)n1-c1ccccc1)c(=S)n(-c1ccccc1)c(=S)n2-c1ccccc1`, the GI50 is 2.16 µM in [1]; 4.68 µM in experiment [2]; 1.52 µM in [3]; 3.6 µM in experiment [4]; 1.16 µM in [5]; 10.4 µM in [6]. The GI50 in experiment [7] was 2.98 µM; in [8], 2.31 µM; in experiment [9] it was 1.93 µM; in [10], 1.4 µM. The TGI in [1] is 14.1 µM; in experiment [3], 3.32 µM; in experiment [5] it was 4.05 µM; in [6] it was 26.7 µM; in experiment [7] it was 9.01 µM; in [8] it was 6.37 µM. Also, the TGI in experiment [9] was determined as 4.87 µM; in experiment [10] it was 3.19 µM.
Regarding `COc1ccc2c(CN3CCCC[C@H]3O)cc3cc4c(cc3c2c1)OCO4`, the GI50 in [1] is 0.518 µM; in [2] it was 0.528 µM; in [3], 0.185 µM; in experiment [4], 0.364 µM; in [5], 0.62 µM; in [6], 0.435 µM. The GI50 in experiment [7] was 0.393 µM; in experiment [8], 0.354 µM; in [9] it was 0.31 µM; in [10] it was 0.422 µM. Moreover, the TGI is 5.66 µM in [1]; 4.07 µM in [2]; 1.36 µM in experiment [3]; 4.35 µM in experiment [4]; 8.43 µM in [5]; 6.94 µM in experiment [6]. Besides, the TGI in experiment [7] worked out at 2.99 µM; in experiment [8], 2.81 µM; in [9] it was 4.65 µM; in [10], 10.8 µM.
As for `CC(C)(O)c1cc(Nc2cc(Oc3cn(C4CC4)nc3C3CCOCC3)ccn2)ccn1`, the GI50 in experiment [1] was above 100 µM; in experiment [2], above 100 µM; in [3], 60.9 µM; in experiment [4], 27.5 µM; in experiment [5] it was 65 µM; in experiment [6], above 100 µM. The GI50 was above 100 µM in experiment [7], 64.3 µM in experiment [8], above 100 µM in experiment [9] and above 100 µM in experiment [10]. Also, the TGI in [1], in experiment [2], in [3], in [4], in [5] and in experiment [6] was above 100 µM in each case. The TGI in [7], in experiment [8], in experiment [9] and in [10] was above 100 µM throughout.
Consider `CN(Cc1cnc2nc(N)nc(N)c2n1)c1c(Cl)cc(C(=O)NC(CCC(=O)O)C(=O)O)cc1Cl` (centres undefined), for which the GI50 is below 0.01 µM in [1]; below 0.01 µM in experiment [2]; 0.08 µM in [3]; below 0.01 µM in experiment [4]; below 0.01 µM in experiment [6]; 0.0156 µM in experiment [8]. In addition, the figures for the GI50 in experiment [9] and in [10] were below 0.01 µM and 0.0423 µM, respectively. The TGI was 0.0242 µM in [1]; above 100 µM in experiment [2]; above 100 µM in experiment [3]; above 100 µM in experiment [4]; above 100 µM in experiment [5]; above 100 µM in [6]. Also, the TGI in experiment [7], in experiment [9] and in experiment [10] was above 100 µM in each case.
Take `C[C@]12CCC3c4ccc(O)cc4CCC3C1CC[C@@H]2NC(=O)/C=C/c1ccc(O)c(O)c1` (some centres undefined): the GI50 in experiment [1] was 16.4 µM; in experiment [2] it was 3.2 µM; in [3], 13.1 µM; in [4], 6.51 µM; in experiment [5], 14.5 µM; in experiment [6], 16.2 µM. Besides, the GI50 was 5.94 µM in experiment [7], 18.5 µM in experiment [8], 15.9 µM in experiment [9] and 6.63 µM in experiment [10]. Further, the TGI came out at 48.4 µM in experiment [1]; 30 µM in experiment [2]; 32.9 µM in experiment [3]; 55.4 µM in experiment [4]; 33.6 µM in experiment [5]; 41.7 µM in experiment [6]. For the same compound, the TGI in experiment [7] was determined as 24.7 µM; in experiment [8], 44.8 µM; in experiment [9], 45 µM; in experiment [10] it was 21.1 µM.
Consider `CCS(=O)(=O)c1cccc(-c2cc(C(=O)NC3CCN(C)CC3)c(C)c3[nH]c4ncc(C)cc4c23)c1`, for which the GI50 is 1.35 µM and 6.41 µM in experiment [1]; 0.101 µM and 0.0822 µM in experiment [2]; 0.0923 µM and 0.0318 µM in [3]; 0.21 µM and 0.09 µM in [4]; 0.232 µM and 0.196 µM in experiment [5]; 44.9 µM in experiment [6]. The GI50 in experiment [7] was 1.04 µM and 0.249 µM; in experiment [8] it was 1.08 µM and 0.832 µM; in [9], 0.268 µM and 0.143 µM; in experiment [10] it was 0.537 µM and 0.316 µM. For the same compound, the TGI in [1] is > 6.29 µM and 36.4 µM; in experiment [2], > 10 µM and 38.1 µM; in [4] it was > 10 µM and 11 µM; in experiment [5] it was > 5.15 µM and 4.9 µM; in experiment [6] it was above 100 µM; in experiment [7], > 7.71 µM and 4.39 µM. For the same compound, the TGI in experiment [8] is > 10 µM and 5.63 µM; in [9], > 10 µM and 1.85 µM; in [10], 5.16 µM and 2.35 µM.
For `CSCc1ncc(-c2ccc(C(F)(F)F)cc2)c(NC2CCCCCC2)n1`, the GI50 in experiment [1], in experiment [2], in [3], in [4], in experiment [5] and in [6] was above 10 µM in each case. For the same compound, the GI50 in experiment [7], in [8], in experiment [9] and in experiment [10] was above 10 µM each time. The TGI in experiment [1], in experiment [2], in experiment [3], in experiment [4], in experiment [5] and in experiment [6] was above 10 µM throughout. Also, the TGI in [7], in [8], in experiment [9] and in experiment [10] was above 10 µM throughout.
